pEC50: −log10 of the molar value.
Legend:
mTGR5 = target: T1, mTGR5 (Mus musculus, UniProt Q80SS6); test: TGR5/CRE Luciferase Assay (mTGR5); type: cell-based; conditions: for pEC50: HEK 293 cells co-transfected with pCMV AC6-TGR5m and pCRE TA-Luciferase, overnight incubation; for mTGR5 % trans: percentage of the 10 μM LCA value, HEK 293 cells transfected with mTGR5
T1 construct: expressed in transfected cells; host or cells: HEK293 cells, transiently co-transfected with the pCRE TA-Luciferase reporter
T1 sequence (Q80SS6 1-329): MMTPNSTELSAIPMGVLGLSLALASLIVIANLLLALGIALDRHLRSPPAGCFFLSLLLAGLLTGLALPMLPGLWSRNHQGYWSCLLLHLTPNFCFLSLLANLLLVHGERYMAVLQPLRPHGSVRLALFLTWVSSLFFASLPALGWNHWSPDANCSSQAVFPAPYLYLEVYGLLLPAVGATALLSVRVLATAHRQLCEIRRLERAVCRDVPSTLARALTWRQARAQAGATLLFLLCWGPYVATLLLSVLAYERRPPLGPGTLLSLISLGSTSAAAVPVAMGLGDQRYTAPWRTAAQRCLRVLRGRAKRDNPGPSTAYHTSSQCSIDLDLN
Protocol: (§1) TGR5/CRE Luciferase Assay
(§2) In the following Tables TGR5 activation by compounds of the invention and subsequent increase in intracellular cAMP were evaluated using a luciferase reporter gene assay. Human embryonic kidney (HEK) 293 cells were transiently co-transfected with pCMV tag4b-TGR5 h (to follow hTGR5 activation) or pCMV AC6-TGR5m (to follow mTGR5 activation) expression plasmids and the pCRE TA-Luciferase reporter plasmid using the JET PEI reagent (Polyplus transfection). Transfected cells were seeded in 96-well plates and incubated overnight with the test compounds at increasing concentrations tested in duplicate. Lithocolic acid (LCA) at 10 μM was used as a positive reference compound. The cAMP-dependent luciferase expression was followed using the BrightGlo reagent according to the manufacturer (Promega) instructions. Luminescence was read with a Mithras plate reader (Berthold) or a Victor3™ V1420 (Perkin Elmer). […] Concentration-response curves were fitted by a nonlinear regression analysis to a 4 parameter logistic equation

hTGR5 = target: T2, hTGR5 (Homo sapiens, UniProt Q8TDU6); test: TGR5/CRE Luciferase Assay (hTGR5); type: cell-based; conditions: for pEC50: HEK 293 cells co-transfected with pCMV tag4b-TGR5h and pCRE TA-Luciferase, overnight incubation; for hTGR5 % trans: percentage of the 10 μM LCA value, HEK 293 cells transfected with hTGR5
T2 construct: expressed in transfected cells; host or cells: HEK293 cells, transiently co-transfected with the pCRE TA-Luciferase reporter
T2 sequence (Q8TDU6 1-330): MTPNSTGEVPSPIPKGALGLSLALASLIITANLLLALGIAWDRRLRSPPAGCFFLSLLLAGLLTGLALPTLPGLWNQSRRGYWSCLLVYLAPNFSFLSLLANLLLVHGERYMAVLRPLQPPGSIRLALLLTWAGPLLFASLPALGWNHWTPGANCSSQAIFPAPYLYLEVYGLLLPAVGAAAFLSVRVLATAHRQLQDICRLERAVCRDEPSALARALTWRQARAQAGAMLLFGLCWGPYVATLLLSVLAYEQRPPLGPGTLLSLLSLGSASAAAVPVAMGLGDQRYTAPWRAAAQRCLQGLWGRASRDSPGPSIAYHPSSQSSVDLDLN
Protocol: as §1, §2

Row | SMILES | pEC50 (mTGR5) | mTGR5 % trans (mTGR5) [%] | pEC50 (hTGR5) | hTGR5 % trans (hTGR5) [%]
1 | CCCN1C(=O)CC(c2ccc(Cl)cc2)C(C(=O)OCc2ccccc2)=C1C (stereo not shown) [Compound 35, Benzyl 4-(4-chlorophenyl)-6-methyl-2-oxo-1-propyl-3,4-dihydropyridine-5-carboxylate] | 6.10 | 76 | – | –
2 | CC1=C(C(=O)OCc2ccccc2)C(c2ccc(Cl)cc2F)CC(=O)N1 (stereo not shown) [Compound 15, benzyl 4-(4-chloro-2-fluoro-phenyl)-6-methyl-2-oxo-3,4-dihydro-1H-pyridine-5-carboxylate] | – | – | 5.41 | –
3 | COc1ccc(C2CC(=O)NC(C)=C2C(=O)OCc2ccccc2)cc1 (stereo not shown) [Compound 6, 4-(4-Methoxy-phenyl)-2-methyl-6-oxo-1,4,5,6-tetrahydro-pyridine-3-carboxylic acid benzyl ester] | – | – | 4.89 | –
4 | CCN1C(=O)CC(c2ccc(Cl)cc2)C(C(=O)OCc2ccccc2)=C1C (stereo not shown) [Compound 34, Benzyl 4-(4-chlorophenyl)-1-ethyl-6-methyl-2-oxo-3,4-dihydropyridine-5-carboxylate] | 6.10 | 70 | – | –
5 | CCC1=C(C(=O)OCc2ccccc2)C(c2ccc(Cl)cc2)CC(=O)N1C (stereo not shown) [Compound 18, Benzyl 4-(4-chlorophenyl)-6-ethyl-1-methyl-2-oxo-3,4-dihydropyridine-5-carboxylate] | – | – | 5.85 | 34
6 | COCCN1C(=O)CC(c2ccc(Cl)cc2)C(C(=O)OCc2ccccc2OC)=C1C (stereo not shown) [Compound 64, (2-methoxyphenyl)methyl 4-(4-chlorophenyl)-1-(2-methoxyethyl)-6-methyl-2-oxo-3,4-dihydropyridine-5-carboxylate] | – | – | 7.00 | –
7 | COc1ccccc1COC(=O)C1=C(C)N(CCO)C(=O)CC1c1ccc(Cl)cc1 (stereo not shown) [Compound 65, (2-methoxyphenyl)methyl 4-(4-chlorophenyl)-1-(2-hydroxyethyl)-6-methyl-2-oxo-3,4-dihydropyridine-5-carboxylate] | 6.52 | 107 | – | –
8 | CCCCN1C(=O)CC(c2ccc(Cl)cc2)C(C(=O)OCc2ccccc2)=C1C (stereo not shown) [Compound 36, Benzyl 1-butyl-4-(4-chlorophenyl)-6-methyl-2-oxo-3,4-dihydropyridine-5-carboxylate] | – | – | 6.22 | 54
9 | COCCN1C(=O)CC(c2ccc(Cl)cc2)C(C(=O)OCc2ccccc2OC(F)(F)F)=C1C (stereo not shown) [Example 105, (2-trifluoromethoxyphenyl)methyl 4-(4-chlorophenyl)-1-(2-methoxyethyl)-6-methyl-2-oxo-3,4-dihydropyridine-5-carboxylate] | 6.10 | 63 | – | –
10 | CC1=C(C(=O)OCc2ccccc2)C(c2ccc(Cl)cc2)CC(=O)N1CCN(C)C (stereo not shown) [Compound 50, Benzyl 4-(4-chlorophenyl)-1-[2-(dimethylamino)ethyl]-6-methyl-2-oxo-3,4-dihydropyridine-5-carboxylate] | 5.44 | 77 | – | –
11 | COc1ccccc1COC(=O)C1=C(C)N(C[C@H]2CCCO2)C(=O)C[C@H]1c1ccc(Cl)cc1 (racemic) [Compound 67, (2-methoxyphenyl)methyl (4S)-4-(4-chlorophenyl)-6-methyl-2-oxo-1-[[(2R)-tetrahydrofuran-2-yl]methyl]-3,4-dihydropyridine-5-carboxylate] | – | – | 7.70 | –
12 | COCCN1C(=O)CC(c2ccc(Cl)cc2)C(C(=O)OCc2ccccc2Cl)=C1C (stereo not shown) [Example 87, (2-chlorophenyl)methyl 4-(4-chlorophenyl)-1-(2-methoxyethyl)-6-methyl-2-oxo-3,4-dihydropyridine-5-carboxylate] | – | – | 6.30 | 67
13 | COc1ccccc1COC(=O)C1=C(C)N(C[C@H]2CCCO2)C(=O)C[C@H]1c1ccc(Cl)nc1 (racemic) [Example 148, (2-methoxyphenyl)methyl (4S)-4-(6-chloro-3-pyridyl)-6-methyl-2-oxo-1-[[(2R)-tetrahydrofuran-2-yl]methyl]-3,4-dihydropyridine-5-carboxylate and 2-methoxyphenyl)methyl (4R)-4-(6-chloro-3-pyridyl)-6-methyl-2-oxo-1-[[(2S)-tetrahydrofuran-2-yl]methyl]-3,4-dihydropyridine-5-carboxylate] | – | – | 9.00 | –
14 | CC1=C(C(=O)OCc2ccccc2)C(c2ccc(Cl)cc2)CC(=O)N1 (stereo not shown) [Compound 12, Benzyl 4-(4-chlorophenyl)-6-methyl-2-oxo-3,4-dihydro-1H-pyridine-5-carboxylate] | 5.35 | 52 | – | –
15 | CC1=C(C(=O)OCc2ccccc2)C(c2ccc(Cl)cc2)CC(=O)N1CC1CC1 (stereo not shown) [Compound 43, Benzyl 4-(4-chlorophenyl)-1-(cyclopropylmethyl)-6-methyl-2-oxo-3,4-dihydropyridine-5-carboxylate] | 6.52 | – | – | –
16 | COC(=O)CN1C(=O)CC(c2ccc(Cl)cc2)C(C(=O)OCc2ccccc2OC)=C1C (stereo not shown) [Compound 73, (2-methoxyphenyl)methyl 4-(4-chlorophenyl)-1-(2-methoxy-2-oxo-ethyl)-6-methyl-2-oxo-3,4-dihydropyridine-5-carboxylate] | 7.52 | 93 | – | –
17 | COc1ccccc1COC(=O)C1=C(C)N(C[C@@H]2CCCO2)C(=O)C[C@H]1c1ccc(Cl)nc1 (racemic) [Example 159, (2-Methoxyphenyl)methyl-(4S)-4-(6-chloro-3-pyridyl)-6-methyl-2-oxo-1-[[(2S)-tetrahydrofuran-2-yl]methyl]-3,4-dihydropyridine-5-carboxylate and (2-methoxyphenyl)methyl-(4R)-4-(6-chloro-3-pyridyl)-6-methyl-2-oxo-1-[[(2R)-tetrahydrofuran-2-yl]methyl]-3,4-dihydropyridine-5-carboxylate] | – | – | 7.43 | 107
18 | COCCN1C(=O)CC(c2ccc(Cl)cc2)C(C(=O)OCc2cccc(C)c2)=C1C (stereo not shown) [Example 99, m-tolylmethyl 4-(4-chlorophenyl)-1-(2-methoxyethyl)-6-methyl-2-oxo-3,4-dihydropyridine-5-carboxylate] | 6.52 | – | – | –
19 | COCCN1C(=O)CC(c2ccc(Cl)cc2)C(C(=O)OCCCc2ccccc2)=C1C (stereo not shown) [Example 111, 3-phenylpropyl 4-(4-chlorophenyl)-1-(2-methoxyethyl)-6-methyl-2-oxo-3,4-dihydropyridine-5-carboxylate] | – | – | 5.96 | 55
20 | COC(=O)CN1C(=O)CC(c2ccc(Cl)cc2)C(C(=O)OCc2ccccc2)=C1C (stereo not shown) [Compound 57, Benzyl 4-(4-chlorophenyl)-1-(2-methoxy-2-oxo-ethyl)-6-methyl-2-oxo-3,4-dihydropyridine-5-carboxylate] | 6.70 | – | – | –
21 | CN1C=C(C(=O)OCc2ccccc2)C(c2ccc(Cl)cc2)CC1=O (stereo not shown) [Compound 24, Benzyl 4-(4-chlorophenyl)-1-methyl-2-oxo-3,4-dihydropyridine-5-carboxylate] | 5.24 | 34 | – | –
22 | COCCN1C(=O)CC(c2ccc(Cl)cc2)C(C(=O)OCc2cccc(F)c2)=C1C (stereo not shown) [Example 85, (3-fluorophenyl)methyl 4-(4-chlorophenyl)-1-(2-methoxyethyl)-6-methyl-2-oxo-3,4-dihydropyridine-5-carboxylate] | 6.15 | 82 | – | –
23 | CC1=C(C(=O)OCc2ccccc2)C(c2ccc(Br)cc2)CC(=O)N1 (stereo not shown) [Compound 16, benzyl 4-(4-bromophenyl)-6-methyl-2-oxo-3,4-dihydro-1H-pyridine-5-carboxylate] | 5.77 | 21 | – | –
24 | COCCN1C(=O)CC(c2ccc(Cl)cc2)C(C(=O)OCc2ccc(C(F)(F)F)cc2)=C1C (stereo not shown) [Example 92, [4-(trifluoromethyl)phenyl]methyl 4-(4-chlorophenyl)-1-(2-methoxyethyl)-6-methyl-2-oxo-3,4-dihydropyridine-5-carboxylate] | 6.52 | – | – | –
25 | COCCN1C(=O)CC(c2ccc(Cl)cc2)C(C(=O)OCC2CCCCC2)=C1C (stereo not shown) [Example 113] | – | – | 5.96 | 57
26 | COc1ccccc1COC(=O)C1=C(C)N(C[C@H]2CCCO2)C(=O)C[C@H]1c1ccc(Cl)cc1 [Example 167, (2-Methoxyphenyl)methyl-(4S)-4-(4-chlorophenyl)-6-methyl-2-oxo-1-[[(2R)-tetrahydrofuran-2-yl]methyl]-3,4-dihydropyridine-5-carboxylate] | – | – | 8.10 | 103

Source: patent publication US9932309B2, “2-oxo-3,4-dihydropyridine-5-carboxylates and their use” (UNIVERSITE DE LILLE 2 DROIT ET SANTE, priority 2014, dated 2018)
